Molecules are shown by their SMILES. Where a name gives a salt, the structure may show the parent alone.

One experiment concerns the target T1, human GPR119 (Homo sapiens, UniProt Q8TDV5).
T1 construct: expressed in transfected cells; host or cells: Flp-In-T-REx 293 (tetracycline-inducible)
T1 sequence (Q8TDV5 1-335): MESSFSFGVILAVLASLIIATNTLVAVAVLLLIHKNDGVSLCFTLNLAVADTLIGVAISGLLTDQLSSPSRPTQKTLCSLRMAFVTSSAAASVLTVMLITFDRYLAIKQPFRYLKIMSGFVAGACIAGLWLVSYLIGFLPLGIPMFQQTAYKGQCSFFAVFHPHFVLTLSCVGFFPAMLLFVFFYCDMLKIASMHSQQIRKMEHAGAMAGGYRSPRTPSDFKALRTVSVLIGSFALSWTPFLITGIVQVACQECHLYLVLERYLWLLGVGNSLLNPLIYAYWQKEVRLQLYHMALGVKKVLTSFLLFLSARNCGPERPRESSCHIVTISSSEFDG
Nature of the experiment: Human Tet-inducible cAMP assay. It is filed as cell-based. Particulars: Flp-In-T-REx 293 tetracycline inducible cells expressing GPR119; cAMP by Hit Hunter cAMP kit; 1 hour at 37° C.; read-out: hGPR119 EC50. Here is the method: The in vitro modulation of recombinant human GPR119 was determined as follows.
Human Tet-Inducible cAMP Assay
Cell lines expressing GPR119 are generated using the Flp-In-T-REx 293 tetracycline inducible gene expression system are cultured in culture medium comprising the following components: DMEM#11965, 10% FBS, 2 mM L-glutamine, 200 ug/ml Hygromycin B, and 15 ug/ml blasticidin.
For cAMP assays, cells are plated on 96 well plates (e.g., BD Falcon: REF 353948, black side, clear bottom, TC surface) at a density of about 4.5×10^4 cells per well in growth medium containing 1.0 ug/ml tetracycline (1.0 mg/ml stock). The cells are then incubated for 48 hours at 37° C.
Following the incubation, the growth medium is removed from the wells and the wells rinsed (once) with the assay buffer included in the Hit Hunter cAMP kit (100 μl/well). Following the wash, 20 μl of assay buffer is added to each well, followed by addition of 10 μl of a 3× concentration compound working solution. The solution is then mixed. The final concentration range of compound is from about 10^−5M to about 10^−11M. The reagents are then incubated at 37° C. at 5% CO2 for 1 hour.
The manufacturer's protocol may be followed for cAMP determination. The Hit Hunter cAMP kit protocol is outlined for the HIT-T15 cAMP assays described above.
Compounds of the present invention were tested in the Human Tet-inducible cAMP assay described immediately above and the results shown in Table 1 below were obtained.
For orientation: Changes in cAMP serve as a functional read-out for many G protein-coupled receptors.
As for `CC(C)OC(=O)N1CCC(Oc2ccn(-c3ccc(S(C)(=O)=O)nc3)c(=O)c2)CC1` [Example 189, isopropyl 4-(1-(6-(methylsulfonyl)pyridin-3-yl)-2-oxo-1,2-dihydropyridin-4-yloxy)piperidine-1-carboxylate], the EC50 (usually the concentration giving half of the maximal effect) stood at 7.14 µM.

`CCCc1cnc(N2CCC(Oc3ccn(-c4ccc(C#N)c(F)c4)c(=O)c3)CC2)nc1` [Example 199, 2-fluoro-4-(2-oxo-4-(1-(5-propylpyrimidin-2-yl)piperidin-4-yloxy)pyridin-1(2H)-yl)benzonitrile]: the EC50 was determined as 0.007 µM.

As to `Cc1cnc(N2CCC(Oc3ccn(-c4ccc(S(C)(=O)=O)cc4)c(=O)c3)CC2)nc1` [Example 108, 4-(1-(5-methylpyrimidin-2-yl)piperidin-4-yloxy)-1-(4-(methylsulfonyl)phenyl)pyridin-2(1H)-one], the EC50 was 0.261 µM.

Take `CS(=O)(=O)c1ccc(-n2ccc(OC3CCN(C(=O)c4cnc5ccccc5n4)CC3)cc2=O)cc1` [Example 78, 1-(4-(methylsulfonyl)phenyl)-4-(1-(quinoxaline-2-carbonyl)piperidin-4-yloxy)pyridin-2(1H)-one]: the half-maximal effective concentration (EC50) amounted to 0.303 µM.

`CS(=O)(=O)c1ccc(-n2ccc(OC3CCN(C(=O)CCc4ccccc4)CC3)cc2=O)cc1` [Example 74, 1-(4-(methylsulfonyl)phenyl)-4-(1-(3-phenylpropanoyl)piperidin-4-yloxy)pyridin-2(1H)-one]: the half-maximal effective concentration (EC50) is 0.275 µM.

For the molecule `CCCc1cnc(N2CCC(Oc3cc(=O)n(-c4ccc(S(C)(=O)=O)cc4)cc3Cl)CC2)nc1` [Example 194, 5-chloro-1-(4-(methylsulfonyl)phenyl)-4-(1-(5-propylpyrimidin-2-yl)piperidin-4-yloxy)pyridin-2(1H)-one, TFA salt], the EC50 is 0.005 µM.

Turning to `CCCc1cnc(N2CCC(Oc3cc(=O)n(-c4ccc(C#N)c(F)c4)cc3Cl)CC2)nc1` [Example 227, 4-(5-chloro-2-oxo-4-(1-(5-propylpyrimidin-2-yl)piperidin-4-yloxy)pyridin-1(2H)-yl)-2-fluorobenzonitrile], the EC50 was found to be 0.001 µM.

Take `CCCc1cnc(N2CCC(Oc3ccn(-c4ccc(S(C)(=O)=O)nc4C)c(=O)c3)CC2)nc1` [Example 206, 1-(2-methyl-6-(methylsulfonyl)pyridin-3-yl)-4-(1-(5-propylpyrimidin-2-yl)piperidin-4-yloxy)pyridin-2(1H)-one, TFA salt]: the EC50 was 0.293 µM.

Regarding `CCc1cnc(N2CCC(Oc3ccn(-c4cccnc4)c(=O)c3)CC2)nc1` [Example 133, 4-(1-(5-ethylpyrimidin-2-yl)piperidin-4-yloxy)-1-(pyridin-3-yl)pyridin-2(1H)-one], the EC50 amounted to 0.25 µM.

In the case of `Cc1cc(Br)ccc1OC(=O)N1CCC(Oc2ccn(-c3ccc(S(C)(=O)=O)cc3)c(=O)c2)CC1` [Example 143, 4-bromo-2-methylphenyl 4-(1-(4-(methylsulfonyl)phenyl)-2-oxo-1,2-dihydropyridin-4-yloxy)piperidine-1-carboxylate], the EC50 came to 0.274 µM.

The subject of another experiment is male C57BL/6J mice. Description: Mouse oral glucose tolerance test. The class given is in vivo. The note with it: oGTT in fasted mice; oral administration at -30 min, glucose 2 g/kg at time 0; plasma glucose AUC vs vehicle; dose not given. Here is the method:
Mouse Oral Glucose Tolerance Test
24 male C57BL/6J mice (8-10 weeks old, average weight 28 g) were randomized into 4 groups (1 mouse/cage) of 6 mice per group based on fed plasma glucose and body weight. Prior to initiating the study, mice were fasted overnight and the next morning they were weighed and placed in the experimental lab. After 30 min in the environment, the mice were bled via tail tip at −30 min and immediately given their first oral administration of vehicle (0.5% Methocel, 0.1% Tween 80 in water) or compound solutions (5 ml/kg). At time 0 the mice were bled and given 50% glucose (2 g/kg) to initiate the oral glucose tolerance test (oGTT). The mice were bled 30, 60 and 120 min after the glucose load. Blood samples were drawn into potassium EDTA, placed on ice during the study and subsequently centrifuged for 10 min at 3000 rpm at 4° C. Plasma samples were diluted 11-fold for glucose analysis in the Cobas Mira System (Roche Diagnostics). Area under the curve was calculated from the plasma glucose time course data using the trapezoid rule with fasting plasma glucose as the baseline (GraphPad Prism Software). The statistical significance of the changes in the glucose AUCs resulting from the different treatments was determined by one-way ANOVA followed by Dunnett's test using the vehicle group as the control (JMP software, release 5.1.2).
Consider `CC(C)OC(=O)N1CCC(Oc2ccn(-c3ccc(S(C)(=O)=O)cc3)c(=O)c2)CC1` [Example 3, isopropyl 4-(1-(4-(methylsulfonyl)phenyl)-2-oxo-1,2-dihydropyridin-4-yloxy)piperidine-1-carboxylate], for which the “Glucose Lowering (%)” value is recorded as −29%.

Values taken from patent publication US8003796B2, “Pyridone GPR119 G protein-coupled receptor agonists” (Bristol-Myers Squibb Company, priority 2007, dated 2011).
